Source: ChEMBL document CHEMBL1201862, “PubChem BioAssay data set” (2004)
The source made the active and inactive calls.

Experiments:
[1] = target: T1, DNA repair protein RAD52 homolog (Homo sapiens, UniProt P43351); type: functional, biochemical
T1 sequence (P43351 whole entry): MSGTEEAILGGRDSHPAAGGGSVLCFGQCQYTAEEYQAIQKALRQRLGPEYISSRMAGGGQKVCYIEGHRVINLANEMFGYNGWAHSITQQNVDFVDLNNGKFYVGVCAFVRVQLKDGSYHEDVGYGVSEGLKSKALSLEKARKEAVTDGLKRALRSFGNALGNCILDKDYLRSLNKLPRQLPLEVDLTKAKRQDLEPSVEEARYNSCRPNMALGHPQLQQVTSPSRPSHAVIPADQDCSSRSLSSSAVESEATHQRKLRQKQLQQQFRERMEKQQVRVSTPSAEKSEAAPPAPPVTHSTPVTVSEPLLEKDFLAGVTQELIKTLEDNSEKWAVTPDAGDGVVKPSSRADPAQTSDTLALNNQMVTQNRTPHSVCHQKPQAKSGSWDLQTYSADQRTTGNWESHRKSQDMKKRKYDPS

[2] = target: Glycogen synthase kinase-3 beta (Homo sapiens, UniProt P49841); experiment: inhibition of human GSK3B activity – biochemical, microfluidics, dry powder samples, set 2, dose response (AID 623989); type: functional
[3] = target: Cyclin-dependent kinase 5/CDK5 activator 1 (Homo sapiens, UniProt Q00535); experiment: inhibitors of human CDK5 activity – biochemical, microfluidic mobility shift, dry powder, set 2, selectivity assay for GSK3beta inhibitor project, dose response (AID 623979); type: functional
[4] = target: T2, Glycogen synthase kinase-3 alpha (Homo sapiens, UniProt P49840); experiment: GSK3A enzyme blockers, homolog specificity check – biochemical, microfluidics, dry powder samples, set 2, selectivity assay for GSK3beta inhibitor project, dose response (AID 623978); type: functional
[5] = target: T3, Multidrug resistance protein CDR2 (Candida albicans (strain SC5314 / ATCC MYA-2876) (Yeast), UniProt P78595); experiment: inhibition of Nile Red efflux via Candida CDR2 – S. cerevisiae AD1-8u, singleplex, Cherry Pick1 hits, dose response (AID 588604); type: functional
[6] = target: T3, Multidrug resistance protein CDR2; experiment: blockers of Nile Red efflux by Candida CDR2 – S. cerevisiae AD1-8u, singleplex, Cherry Pick2 set, dose response (AID 623994); type: functional; settings: read-out: EC50_MICROM
[7] = target: T4, Ubiquitin-conjugating enzyme E2 N (Homo sapiens, UniProt P61088); type: functional;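 note: Dose-response confirmation in a TR-FRET assay detecting UBC13-driven polyubiquitin chain formation, inhibition measured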
T4 sequence (P61088 whole entry): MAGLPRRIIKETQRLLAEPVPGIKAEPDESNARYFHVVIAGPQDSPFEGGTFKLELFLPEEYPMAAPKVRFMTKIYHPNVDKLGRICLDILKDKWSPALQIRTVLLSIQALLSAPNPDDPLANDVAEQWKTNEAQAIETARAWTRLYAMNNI

[8] = target: T5, Benomyl/methotrexate resistance protein (Candida albicans, UniProt P28873); experiment: Candida albicans Mdr1 pump blockade titration – singleplex, Cherry Pick2 set, dose response (AID 623992); type: functional; settings: read-out: EC50_MICROM
[9] = target: T5, Benomyl/methotrexate resistance protein; experiment: Candida albicans Mdr1 pump inhibition curves – singleplex, Cherry Pick1 hits, dose response (AID 588608); type: functional
[10] = target: T6, Multidrug resistance protein CDR1 (Candida albicans, UniProt P43071); experiment: Candida albicans Cdr1 pump inhibition curves – singleplex, Cherry Pick2 set, dose response (AID 623996); type: functional; settings: read-out: EC50_MICROM
[11] = target: T6, Multidrug resistance protein CDR1; experiment: inhibition of Nile Red efflux via Candida CDR1 – S. cerevisiae AD1-8u, singleplex, Cherry Pick1 hits, dose response (AID 588606); type: functional
[12] = THP-1 cell cytotoxicity, cytotoxicity control, set 4 (AID 504911); type: functional; settings: Mycobacterium tuberculosis
[13] = Vero cell cytotoxicity, dose response, cytotoxicity control for M. tuberculosis growth inhibitor project, Vero cells, purified and synthesized compounds, set 5 (AID 504909); type: functional; settings: Mycobacterium tuberculosis
[14] = Vero cell cytotoxicity, dose response, cytotoxicity control for M. tuberculosis growth inhibitor project, Vero cells, purified and synthesized compounds, set 4 (AID 504854); type: functional; settings: Mycobacterium tuberculosis
[15] = target: T2, Glycogen synthase kinase-3 alpha; type: functional
[16] = target: Dual specificity protein kinase CLK4 (Homo sapiens, UniProt Q9HAZ1); type: functional
[17] = target: Proto-oncogene tyrosine-protein kinase receptor Ret (Homo sapiens, UniProt P07949); type: functional;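 note: measured within a kinome-wide profiling panel, RET as the panel member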
[18] = target: Serine/threonine-protein kinase Chk1 (Homo sapiens, UniProt O14757); type: functional;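 note: measured as one member of a kinome-wide kinase profiling panel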
[19] = target: Activin receptor type-1 (Homo sapiens, UniProt Q04771); experiment: Navigating the Kinome. Panel member name: ACVR1; type: functional
[20] = target: Tyrosine-protein kinase receptor TYRO3 (Homo sapiens, UniProt Q06418); type: functional;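 note: TYRO3 value obtained as one member of a kinome-wide profiling panel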
[21] = target: Hepatocyte growth factor receptor (Homo sapiens, UniProt P08581); type: functional;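 note: kinase panel profiling across the kinome, with MET as the panel member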
[22] = target: Mitogen-activated protein kinase 8 (Homo sapiens, UniProt P45983); type: functional;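 note: value comes from one member of a kinome-wide kinase profiling panel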
[23] = target: Casein kinase I isoform alpha (Homo sapiens, UniProt P48729); type: functional
[24] = target: Inhibitor of nuclear factor kappa-B kinase subunit epsilon (Homo sapiens, UniProt Q14164); experiment: Navigating the Kinome. Panel member name: IKBKE; type: functional
[25] = target: Dual specificity mitogen-activated protein kinase kinase 2 (Homo sapiens, UniProt P36507); experiment: Navigating the Kinome. Panel member name: MAP2K2; type: functional
[26] = target: Leucine-rich repeat serine/threonine-protein kinase 2 (Homo sapiens, UniProt Q5S007); type: functional;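 note: value from a broad kinome-wide panel profiling study in which LRRK2 was one of the kinases tested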
[27] = target: LIM domain kinase 1 (Homo sapiens, UniProt P53667); experiment: Navigating the Kinome. Panel member name: LIMK1; type: functional
[28] = target: Protein kinase C theta type (Homo sapiens, UniProt Q04759); experiment: Navigating the Kinome. Panel member name: PRKCQ; type: functional
[29] = target: Tyrosine-protein kinase JAK2 (Homo sapiens, UniProt O60674); type: functional;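 note: JAK2 tested as one member of a kinase panel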
[30] = target: BDNF/NT-3 growth factors receptor (Homo sapiens, UniProt Q16620); type: functional;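 note: NTRK2 measured as one member of a broad kinome-wide kinase profiling panel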
[31] = target: Macrophage colony-stimulating factor 1 receptor (Homo sapiens, UniProt P07333); type: functional;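 note: value comes from the Navigating the Kinome screening panel, CSF1R member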
[32] = target: Aurora kinase B (Homo sapiens, UniProt Q96GD4); type: functional
[33] = target: Serine/threonine-protein kinase TAO1 (Homo sapiens, UniProt Q7L7X3); type: functional
[34] = target: Serine/threonine-protein kinase pim-1 (Homo sapiens, UniProt P11309); type: functional
[35] = target: Leukocyte tyrosine kinase receptor (Homo sapiens, UniProt P29376); experiment: Navigating the Kinome. Panel member name: LTK; type: functional
[36] = target: Cyclin-dependent kinase 9 (Homo sapiens, UniProt P50750); type: functional;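 note: value from the CDK9 entry of a kinome-spanning kinase panel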
[37] = target: ALK tyrosine kinase receptor (Homo sapiens, UniProt Q9UM73); type: functional;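 note: ALK tested as one member of a kinase panel screen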
[38] = target: Insulin-like growth factor 1 receptor (Homo sapiens, UniProt P08069); experiment: Navigating the Kinome. Panel member name: IGF1R; type: functional
[39] = target: Serine/threonine-protein kinase Nek2 (Homo sapiens, UniProt P51955); type: functional
[40] = target: Serine/threonine-protein kinase PAK 4 (Homo sapiens, UniProt O96013); type: functional;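 note: value obtained within a kinome profiling panel in which PAK4 was one of the panel members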
[41] = target: Dual specificity tyrosine-phosphorylation-regulated kinase 1A (Homo sapiens, UniProt Q13627); type: functional;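 note: measured against DYRK1A as one member of a broad kinome profiling panel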
[42] = target: Focal adhesion kinase 1 (Homo sapiens, UniProt Q05397); type: functional;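 note: measured as one member of a kinome panel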
[43] = target: Activated CDC42 kinase 1 (Homo sapiens, UniProt Q07912); experiment: Navigating the Kinome. Panel member name: ACK1; type: functional
[44] = target: Aurora kinase A (Homo sapiens, UniProt O14965); type: functional;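 note: value from the Navigating the Kinome kinase panel profiling, panel entry STK6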
[45] = target: Death-associated protein kinase 3 (Homo sapiens, UniProt O43293); type: functional;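 note: measured as one member of a kinome-wide profiling panel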
[46] = target: Dual specificity mitogen-activated protein kinase kinase 1 (Homo sapiens, UniProt Q02750); experiment: Navigating the Kinome. Panel member name: MAP2K1; type: functional
[47] = target: Ribosomal protein S6 kinase alpha-3 (Homo sapiens, UniProt P51812); type: functional;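 note: measured within a kinome-wide profiling panel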
[48] = target: Tyrosine-protein kinase Lck (Homo sapiens, UniProt P06239); type: functional;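 note: lck was assayed as one member of a kinase panel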
[49] = target: Dual specificity tyrosine-phosphorylation-regulated kinase 1B (Homo sapiens, UniProt Q9Y463); experiment: Navigating the Kinome. Panel member name: DYRK1B; type: functional
[50] = target: Vascular endothelial growth factor receptor 2 (Homo sapiens, UniProt P35968); type: functional
[51] = target: Tyrosine-protein kinase Fyn (Homo sapiens, UniProt P06241); type: functional
[52] = target: Rho-associated protein kinase 1 (Homo sapiens, UniProt Q13464); type: functional;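 note: measured within a broad kinome-wide panel profiling many kinases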
[53] = target: Cyclin-dependent kinase 5 (Homo sapiens, UniProt Q00535); type: functional;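 note: CDK5 measured as one member of a kinase profiling panel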
[54] = target: Mitogen-activated protein kinase kinase kinase kinase 2 (Homo sapiens, UniProt Q12851); type: functional;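 note: measured as one member of a kinome-wide kinase panel, with MAP4K2 as the panel entry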
[55] = target: 5'-AMP-activated protein kinase catalytic subunit alpha-1 (Homo sapiens, UniProt Q13131); type: functional
[56] = target: Platelet-derived growth factor receptor beta (Homo sapiens, UniProt P09619); type: functional;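 note: value comes from a kinome panel, with PDGFRB tested as one panel member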
[57] = target: cAMP-dependent protein kinase catalytic subunit PRKX (Homo sapiens, UniProt P51817); type: functional
[58] = target: Cyclin-dependent kinase 7 (Homo sapiens, UniProt P50613); type: functional;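 note: value comes from a kinome-wide kinase profiling panel in which CDK7 is one member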
[59] = target: Receptor-type tyrosine-protein kinase FLT3 (Homo sapiens, UniProt P36888); type: functional;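 note: FLT3 was tested as one member of a kinome-wide kinase panel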
[60] = target: Tyrosine-protein kinase JAK3 (Homo sapiens, UniProt P52333); type: functional
[61] = target: G protein-coupled receptor kinase 5 (Homo sapiens, UniProt P34947); experiment: Navigating the Kinome. Panel member name: GPRK5; type: functional
[62] = target: Cyclin-dependent kinase 8 (Homo sapiens, UniProt P49336); experiment: Navigating the Kinome. Panel member name: CDK8; type: functional
[63] = target: Neuropeptides B/W receptor type 1 (Homo sapiens, UniProt P48145); experiment: human NPBW1 receptor blockade, IC50 – cell-based, fluorescence, dose response, set 6, late-stage follow-up (AID 588583); type: functional
[64] = target: Melanin-concentrating hormone receptor 1 (Homo sapiens, UniProt Q99705); experiment: Late-stage fluorescence-based counterscreen for antagonists of the G-protein coupled receptor 7 (GPR7): cell-based dose response assay to identify antagonists of the melanin-concentrating hormone receptor 1 (MCHR1) Set 6.; type: functional
[65] = target: DNA dC->dU-editing enzyme APOBEC-3A (Homo sapiens, UniProt P31941); experiment: SAR analysis of small molecule inhibitors of APOBEC3A DNA Deaminase via a fluorescence-based single-stranded DNA deaminase assay - Set 2.; type: functional; settings: read-out: IC50_Mean
[66] = target: DNA dC->dU-editing enzyme APOBEC-3G (Homo sapiens, UniProt Q9HC16); experiment: SAR analysis of small molecule inhibitors of APOBEC3G DNA Deaminase via a fluorescence-based single-stranded DNA deaminase assay - Set 2.; type: functional; settings: read-out: IC50_Mean

T6 sequence (P43071 whole entry, looked up): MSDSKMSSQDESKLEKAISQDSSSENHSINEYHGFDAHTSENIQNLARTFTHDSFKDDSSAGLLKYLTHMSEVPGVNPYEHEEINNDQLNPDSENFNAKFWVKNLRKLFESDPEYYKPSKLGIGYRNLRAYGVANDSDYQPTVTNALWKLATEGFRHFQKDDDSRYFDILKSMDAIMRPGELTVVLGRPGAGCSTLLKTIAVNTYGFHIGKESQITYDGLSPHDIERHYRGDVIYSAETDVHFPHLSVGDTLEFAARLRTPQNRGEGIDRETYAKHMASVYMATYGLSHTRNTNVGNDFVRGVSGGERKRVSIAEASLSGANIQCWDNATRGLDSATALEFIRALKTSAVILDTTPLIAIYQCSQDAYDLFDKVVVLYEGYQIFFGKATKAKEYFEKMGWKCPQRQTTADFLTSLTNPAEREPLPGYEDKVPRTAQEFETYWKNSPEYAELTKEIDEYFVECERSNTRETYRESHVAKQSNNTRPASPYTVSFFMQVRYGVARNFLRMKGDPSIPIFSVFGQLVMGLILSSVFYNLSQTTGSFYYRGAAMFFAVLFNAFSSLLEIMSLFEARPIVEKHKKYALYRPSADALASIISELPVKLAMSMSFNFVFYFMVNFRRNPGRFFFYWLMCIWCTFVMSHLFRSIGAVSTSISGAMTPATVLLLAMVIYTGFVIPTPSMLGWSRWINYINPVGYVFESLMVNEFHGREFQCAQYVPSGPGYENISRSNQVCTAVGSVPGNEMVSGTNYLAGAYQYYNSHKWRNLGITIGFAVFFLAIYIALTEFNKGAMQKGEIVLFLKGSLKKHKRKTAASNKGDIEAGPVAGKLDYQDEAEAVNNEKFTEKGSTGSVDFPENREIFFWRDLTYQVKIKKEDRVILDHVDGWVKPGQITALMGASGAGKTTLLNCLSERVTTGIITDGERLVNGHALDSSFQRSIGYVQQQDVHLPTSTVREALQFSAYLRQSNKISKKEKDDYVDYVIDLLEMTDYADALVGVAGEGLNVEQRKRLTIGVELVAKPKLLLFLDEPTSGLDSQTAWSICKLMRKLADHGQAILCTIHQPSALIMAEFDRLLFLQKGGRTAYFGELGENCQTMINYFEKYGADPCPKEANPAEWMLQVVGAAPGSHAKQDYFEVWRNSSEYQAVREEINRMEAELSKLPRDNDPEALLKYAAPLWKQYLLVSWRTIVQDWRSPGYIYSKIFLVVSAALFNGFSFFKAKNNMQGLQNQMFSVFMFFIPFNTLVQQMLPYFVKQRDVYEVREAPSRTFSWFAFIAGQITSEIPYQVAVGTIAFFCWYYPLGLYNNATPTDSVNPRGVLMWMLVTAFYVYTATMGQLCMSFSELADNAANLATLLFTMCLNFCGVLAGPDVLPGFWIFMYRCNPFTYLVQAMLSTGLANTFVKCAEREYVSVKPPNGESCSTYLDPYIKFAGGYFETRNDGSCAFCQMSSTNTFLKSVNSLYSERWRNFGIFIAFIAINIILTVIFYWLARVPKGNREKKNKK
T2 sequence (P49840 whole entry): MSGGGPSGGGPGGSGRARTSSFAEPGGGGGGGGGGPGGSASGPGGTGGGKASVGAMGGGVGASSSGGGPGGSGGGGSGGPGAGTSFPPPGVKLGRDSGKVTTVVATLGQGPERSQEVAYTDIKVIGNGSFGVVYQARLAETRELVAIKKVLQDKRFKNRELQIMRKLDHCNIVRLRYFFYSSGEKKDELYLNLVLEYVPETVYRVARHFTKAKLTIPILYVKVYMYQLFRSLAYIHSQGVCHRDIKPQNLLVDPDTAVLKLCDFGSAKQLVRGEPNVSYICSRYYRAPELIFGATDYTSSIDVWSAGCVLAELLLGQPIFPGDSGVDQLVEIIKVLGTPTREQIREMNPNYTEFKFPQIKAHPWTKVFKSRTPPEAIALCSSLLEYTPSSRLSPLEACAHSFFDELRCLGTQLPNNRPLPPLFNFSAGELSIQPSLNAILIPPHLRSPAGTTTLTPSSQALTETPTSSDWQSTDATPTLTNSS
T3 sequence (P78595 whole entry): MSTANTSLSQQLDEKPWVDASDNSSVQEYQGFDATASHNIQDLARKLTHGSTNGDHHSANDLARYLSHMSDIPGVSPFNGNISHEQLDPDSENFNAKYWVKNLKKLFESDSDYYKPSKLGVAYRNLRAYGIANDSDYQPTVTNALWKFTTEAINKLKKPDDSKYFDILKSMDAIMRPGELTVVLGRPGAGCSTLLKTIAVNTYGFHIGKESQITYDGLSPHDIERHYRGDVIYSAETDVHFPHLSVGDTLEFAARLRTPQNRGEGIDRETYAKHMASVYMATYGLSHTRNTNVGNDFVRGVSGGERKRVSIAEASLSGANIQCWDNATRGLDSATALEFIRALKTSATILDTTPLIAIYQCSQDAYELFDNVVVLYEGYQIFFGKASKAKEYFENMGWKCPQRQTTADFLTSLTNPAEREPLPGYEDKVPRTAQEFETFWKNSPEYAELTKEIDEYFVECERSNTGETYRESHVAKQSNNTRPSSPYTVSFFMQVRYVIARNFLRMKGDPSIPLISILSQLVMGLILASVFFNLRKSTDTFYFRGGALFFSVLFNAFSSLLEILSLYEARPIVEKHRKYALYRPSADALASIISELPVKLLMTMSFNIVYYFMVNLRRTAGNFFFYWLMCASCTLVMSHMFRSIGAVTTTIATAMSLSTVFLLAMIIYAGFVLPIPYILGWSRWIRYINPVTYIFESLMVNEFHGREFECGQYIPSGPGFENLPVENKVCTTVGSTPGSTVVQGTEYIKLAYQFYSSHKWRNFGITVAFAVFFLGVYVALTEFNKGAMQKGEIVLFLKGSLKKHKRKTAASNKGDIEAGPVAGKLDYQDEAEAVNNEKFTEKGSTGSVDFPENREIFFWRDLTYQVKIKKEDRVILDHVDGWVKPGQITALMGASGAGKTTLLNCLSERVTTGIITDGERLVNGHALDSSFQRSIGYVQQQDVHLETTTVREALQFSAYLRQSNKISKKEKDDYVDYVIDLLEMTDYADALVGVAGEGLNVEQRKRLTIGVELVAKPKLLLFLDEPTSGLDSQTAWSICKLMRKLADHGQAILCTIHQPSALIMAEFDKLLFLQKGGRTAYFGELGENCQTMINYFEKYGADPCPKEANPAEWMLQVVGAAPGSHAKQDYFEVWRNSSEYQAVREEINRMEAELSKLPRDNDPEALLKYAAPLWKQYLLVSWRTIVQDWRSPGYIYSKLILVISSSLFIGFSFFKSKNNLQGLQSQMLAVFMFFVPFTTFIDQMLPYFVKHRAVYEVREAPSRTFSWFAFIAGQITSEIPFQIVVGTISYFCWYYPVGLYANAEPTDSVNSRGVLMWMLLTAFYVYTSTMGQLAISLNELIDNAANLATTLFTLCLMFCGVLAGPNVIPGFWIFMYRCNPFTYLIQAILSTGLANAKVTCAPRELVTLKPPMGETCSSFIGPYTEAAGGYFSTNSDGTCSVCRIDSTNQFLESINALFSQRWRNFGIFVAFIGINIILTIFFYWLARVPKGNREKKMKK
T5 sequence (P28873 whole entry): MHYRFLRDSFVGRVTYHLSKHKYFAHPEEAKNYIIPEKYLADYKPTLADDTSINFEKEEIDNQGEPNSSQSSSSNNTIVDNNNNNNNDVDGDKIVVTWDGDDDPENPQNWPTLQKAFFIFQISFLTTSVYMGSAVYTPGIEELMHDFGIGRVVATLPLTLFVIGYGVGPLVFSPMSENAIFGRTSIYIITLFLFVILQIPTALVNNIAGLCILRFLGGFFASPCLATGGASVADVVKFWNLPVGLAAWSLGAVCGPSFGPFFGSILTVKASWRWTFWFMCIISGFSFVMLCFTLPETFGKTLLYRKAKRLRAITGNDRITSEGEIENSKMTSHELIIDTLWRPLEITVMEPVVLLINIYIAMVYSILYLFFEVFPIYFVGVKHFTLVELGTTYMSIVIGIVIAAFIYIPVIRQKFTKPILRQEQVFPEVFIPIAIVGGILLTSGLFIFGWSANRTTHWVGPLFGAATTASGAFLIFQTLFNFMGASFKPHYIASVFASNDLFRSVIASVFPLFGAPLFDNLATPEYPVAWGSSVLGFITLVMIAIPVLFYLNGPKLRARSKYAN
Chain of Death-associated protein kinase 3 (O43293 whole entry): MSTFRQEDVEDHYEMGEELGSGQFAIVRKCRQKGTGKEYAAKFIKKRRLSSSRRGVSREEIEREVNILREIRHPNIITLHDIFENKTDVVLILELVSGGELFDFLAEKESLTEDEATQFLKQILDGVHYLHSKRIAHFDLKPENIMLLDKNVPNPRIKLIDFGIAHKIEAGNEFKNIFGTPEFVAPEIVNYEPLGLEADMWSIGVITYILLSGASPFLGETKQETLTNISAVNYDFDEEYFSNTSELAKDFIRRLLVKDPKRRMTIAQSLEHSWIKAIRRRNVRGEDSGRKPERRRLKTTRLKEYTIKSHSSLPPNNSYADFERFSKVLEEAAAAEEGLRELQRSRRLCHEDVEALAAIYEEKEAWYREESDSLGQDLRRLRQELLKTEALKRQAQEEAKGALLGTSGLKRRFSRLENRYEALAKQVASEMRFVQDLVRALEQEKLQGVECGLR
Chain of cAMP-dependent protein kinase catalytic subunit PRKX (P51817 whole entry): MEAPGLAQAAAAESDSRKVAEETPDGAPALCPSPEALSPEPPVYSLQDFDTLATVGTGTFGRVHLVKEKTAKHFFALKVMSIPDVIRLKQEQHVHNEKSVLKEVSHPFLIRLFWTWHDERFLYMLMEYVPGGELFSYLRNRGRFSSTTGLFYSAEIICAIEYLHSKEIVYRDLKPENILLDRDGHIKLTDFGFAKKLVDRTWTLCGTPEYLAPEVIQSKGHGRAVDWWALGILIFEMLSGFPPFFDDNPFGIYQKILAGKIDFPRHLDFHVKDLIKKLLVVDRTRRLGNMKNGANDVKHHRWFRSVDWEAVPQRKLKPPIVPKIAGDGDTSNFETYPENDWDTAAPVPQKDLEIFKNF
Chain of DNA dC->dU-editing enzyme APOBEC-3A (P31941 whole entry): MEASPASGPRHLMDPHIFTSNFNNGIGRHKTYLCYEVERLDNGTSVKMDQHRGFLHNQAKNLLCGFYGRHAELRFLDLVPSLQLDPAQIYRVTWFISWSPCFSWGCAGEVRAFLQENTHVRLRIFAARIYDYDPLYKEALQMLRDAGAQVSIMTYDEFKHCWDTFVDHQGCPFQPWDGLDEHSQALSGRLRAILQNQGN

COc1cccc(/C=C2/Sc3ccc(C(=O)NCCCN4CCCC4)cc3NC2=O)c1
AC50 [1]: 4470 nM (active)
AC50 [2]: 4460 nM (active)
AC50 [3]: 7910 nM (active)
AC50 [4]: 38900 nM (active)

NC1=NC[C@@H](Cc2ccc(O)cc2)N1CCCCC1CCCCC1
EC50 [5]: 27300 nM (active)
EC50 [6]: 16300 nM (active)
IC50 [7]: > 20000 nM (inactive)

Cc1noc(C)c1C(=O)N1CCC2(CC1)Oc1ccc(F)cc1C(=O)C21CC(c2ccc(Cl)cc2)=NO1 (stereo unspecified)
EC50 [8]: 16900 nM (active)
EC50 [9]: 15600 nM (active)
EC50 [10]: 26800 nM (active)
EC50 [11]: 11500 nM (active)

Oc1nc(SCc2ccccc2Cl)nc2c1CCCC2
CC50 [12]: > 100000 nM (active)
CC50 [13]: > 100000 nM (active)
CC50 [14]: > 100000 nM (active)

NC(=O)c1ccc2nc(-c3ccc([N+](=O)[O-])o3)cn2c1
Ki [15]: 1000 nM (active)
Ki [16]: 20 nM (active)
Ki [17]: 316 nM (active)
Ki [18]: 50.1 nM (active)
Ki [19]: 200 nM (active)
Ki [20]: 100 nM (active)
Ki [21]: 50.1 nM (active)
Ki [22]: 1580 nM (active)
Ki [23]: 126 nM (active)
Ki [24]: 126 nM (active)
Ki [25]: 1000 nM (active)
Ki [26]: 126 nM (active)
Ki [27]: 158 nM (active)
Ki [28]: 251 nM (active)
Ki [29]: 1260 nM (active)
Ki [30]: > 3980 nM (inactive)
Ki [31]: 1260 nM (active)
Ki [32]: 251 nM (active)
Ki [33]: 1260 nM (active)
Ki [34]: 631 nM (active)
Ki [35]: 79.4 nM (active)
Ki [36]: 39.8 nM (active)
Ki [37]: 631 nM (active)
Ki [38]: > 2510 nM (inactive)
Ki [39]: 63.1 nM (active)
Ki [40]: 794 nM (active)
Ki [41]: 31.6 nM (active)
Ki [42]: 316 nM (active)
Ki [43]: 251 nM (active)
Ki [44]: 126 nM (active)
Ki [45]: 251 nM (active)
Ki [46]: 1580 nM (active)
Ki [47]: 631 nM (active)
Ki [48]: > 6310 nM (inactive)
Ki [49]: 79.4 nM (active)
Ki [50]: > 2510 nM (inactive)
Ki [51]: 2000 nM (active)
Ki [52]: 1000 nM (active)
Ki [53]: 126 nM (active)
Ki [54]: 251 nM (active)
Ki [55]: 158 nM (active)
Ki [56]: 1000 nM (active)
Ki [57]: 631 nM (active)
Ki [58]: 631 nM (active)
Ki [59]: 2510 nM (active)
Ki [60]: 794 nM (active)
Ki [61]: 158 nM (active)
Ki [62]: 126 nM (active)

O=c1c(-c2ccc(F)cc2)c(Br)cnn1Cc1cccc2ccccc12
IC50 [63]: 2240 nM (active)
IC50 [64]: 2240 nM (active)

CCc1nc2sc3c(c2c2nnc(SC)n12)CCCC3
IC50 [65]: > 99000 nM (inactive)
IC50 [66]: > 99000 nM (inactive)
